Reference: patent publication US11534410B2, “Amphotericin loaded PEGylated lipid nanoparticles and methods of use” (University of Mississippi, priority 2018, dated 2022)
≈ marks a conversion by molar mass, not a printed value. Like-named read-outs stand apart in the source and are kept apart here.

How the values were obtained:
[1] = cited from earlier work
[2] = test system: wild type (WT) Candida albicans (ATCC90028); assay: Microdilution (CLSI) and recovery assay, antifungal/fungicidal activity; type: cell-based; conditions: for MFC: recovery assay
Protocol: FIG. 5: Antifungal activity of amphotericin B formulations. […] Each formulation was tested at 5.0-0.01 μg/ml with 2-fold dilutions. Color bar represents relative growth. A. Antifungal activity on Day 1 post AmB formulation in wild type (WT) Candida. B. & C. Antifungal activity on Day 10 post AmB formulation in WT and AmB resistant Candida strains, respectively. Each experiment was performed in triplicates.
In vitro fungicidal activity: A microdilution experiment was performed in wild type (WT) Candida albicans (ATCC90028) and Aspergillus fumigatus (ATCC 204305) as per Clinical & Laboratory Standards Institute (CLSI) protocols^37-39. […] Recovery assay was performed for fungicidal activity at both day 1 and day 10 post preparation.

[3] = test system: AmB resistant Candida strain (ATCC 200955); assay: Microdilution and fungicidal assay, AmB resistant strain; type: cell-based, Candida albicans; conditions: Day10
Protocol: Each formulation was tested at 5.0-0.01 μg/ml with 2-fold dilutions. […] B. & C. Antifungal activity on Day 10 post AmB formulation in WT and AmB resistant Candida strains, respectively. Each experiment was performed in triplicates.

[4] = Lipid screening: solubility/dispersibility of amphotericin B in lipids; type: physicochemical
Protocol: Lipid screening is a crucial step, in order to select the lipids with the highest drug solubility and/or dispersibility. Amphotericin B (1 mg) was added to the lipid at 75° C., upon stirring at 2000 rpm for 10 mins, and observed with naked eye as well as under the microscope for precipitation/aggregation. Amphotericin B has a relatively higher solubility at elevated temperature in Precirol™ ATO 5 (glyceryl palmitostearate) in comparison with the other lipids, such as Compritol® ATO 888 (glyceryl behenate), stearic acid, glyceryl mono stearate (GMS) and glyceryl di-stearate (Table 1). […] While screening liquid lipids, amphotericin B better dispersed/solubilized in castor oil (Table 1).

[5] = test system: retinal pigmented epithelial cells (ATCC ARPE-19); type: cell-based
Protocol: In vitro cytotoxicity evaluation: The placebo (no Amphotericin B) formulations PEG-NLC and NLC alone were tested for cytotoxicity towards the retinal pigmented epithelial cells (ATCC ARPE-19) in a concentration range of 0.03%-1%. […] They were not cytotoxic to ARPE-19 cells up to a highest concentration of 30 μg/mL, indicating a high therapeutic index.

[6] = amphotericin B (1 mg) added to the solid lipid at 75° C., 2000 rpm for 10 mins

C[C@@H]1[C@H](O)[C@@H](C)/C=C/C=C/C=C/C=C/C=C/C=C/C=C/[C@H](O[C@@H]2O[C@H](C)[C@@H](O)[C@H](N)[C@@H]2O)C[C@@H]2O[C@](O)(C[C@@H](O)C[C@@H](O)[C@H](O)CC[C@@H](O)C[C@@H](O)CC(=O)O[C@H]1C)C[C@H](O)[C@H]2C(=O)O [AmB, Amphotericin B]
log P [1]: 0.8
solubility in water, methanol, and ethanol [1]: practically insoluble
MIC ([2]; Day1 post preparation): 0.62/0.62 μg/mL
MFC ([2]; Day1 post preparation): 1.25/1.25 μg/mL
MIC ([2]; Day10 post preparation): 0.62/0.62 μg/mL
MFC ([2]; Day10 post preparation): 1.25/1.25 μg/mL
MFC [3]: 2.5 µg/mL (≈ 2.71 µM)
MIC [3]: 2.5 µg/mL (≈ 2.71 µM)

CCCCCCCCCCCCCC(=O)OCC(COC(=O)CCCCCCCCCCCCC)OC(=O)CCCCCCCCCCCCC [Dynasan 114, glyceryl trimyristate]
Solubility/Dispersion (Solid Lipid) [4, 6]: −

CCCCCCCCCCCCCCCC(=O)OCC(COC(=O)CCCCCCCCCCCCCCC)OC(=O)CCCCCCCCCCCCCCC [Dynasan 116, glyceryl tripalmitate]
Solubility/Dispersion (Solid Lipid) [4, 6]: −

CCCCCCCCCCCCCCCCCC(=O)OCC(O)CO (stereo not shown) [GMS, glyceryl mono stearate]
Solubility/Dispersion (Solid Lipid) [4]: −

CCCCCCCC/C=C\CCCCCCCC(=O)O [Oleic acid]
Solubility/Dispersion (Liquid Lipid) [4]: −

Castor Oil
Solubility/Dispersion (Liquid Lipid) [4]: +

Sesame Oil
Solubility/Dispersion (Liquid Lipid) [4]: −

Soy bean oil
Solubility/Dispersion (Liquid Lipid) [4]: −

benzalkonium chloride
IC50 (cytotoxicity) [5]: 3.9 µg/mL
